In EP4596574A1, “GLP-1/GCG/GIP TRIPLE-RECEPTOR AGONIST AND USE THEREOF” (Sunshine Lake Pharma Co., Ltd., priority 2022, dated 2024):
Marks after values point to notes of the source that are not given here.

Tests used:
[1] = biological target: T1, GCGR (Homo sapiens, UniProt P47871); assay: In vitro cell activity, cAMP production in HEK293 cells expressing GCGR; assay type: cell-based
T1 construct: expressed in transfected cells; host or cells: HEK293 (HEK293-GCGR)
Method in brief: (§1)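 Cells were plated at 4×10^5 cells/mL, and detection reagents (cAMP-d2, anti-cAMP cryptate, 1:1) were incubated 1 h at room temperature in the dark or overnight at 4 °C.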

[2] = In vivo efficacy evaluation in db/db mouse model (blood glucose); parameters: species or system db/db mice
Description: Blood glucose was tested before each administration.

[3] = biological target: T2, GIPR (Homo sapiens, UniProt P48546); assay: In vitro cell activity, cAMP production in HEK293 cells expressing GIPR; assay type: cell-based
T2 construct: expressed in transfected cells; host or cells: HEK293 (HEK293-GIPR)
T2 sequence (P48546 22-466): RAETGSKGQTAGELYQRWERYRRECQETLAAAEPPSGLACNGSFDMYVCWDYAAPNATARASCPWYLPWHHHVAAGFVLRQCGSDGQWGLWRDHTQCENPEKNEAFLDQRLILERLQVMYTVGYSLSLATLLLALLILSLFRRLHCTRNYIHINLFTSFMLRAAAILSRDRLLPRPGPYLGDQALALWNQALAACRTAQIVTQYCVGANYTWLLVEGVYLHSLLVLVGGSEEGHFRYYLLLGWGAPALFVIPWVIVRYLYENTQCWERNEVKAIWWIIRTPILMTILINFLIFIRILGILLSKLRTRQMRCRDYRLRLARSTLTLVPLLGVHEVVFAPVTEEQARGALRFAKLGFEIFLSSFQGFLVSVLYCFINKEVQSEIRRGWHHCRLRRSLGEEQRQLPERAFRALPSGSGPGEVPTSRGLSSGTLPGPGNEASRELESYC
Method in brief: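 cAMP accumulation is quantified by homogeneous TR-FRET (cAMP-d2 plus anti-cAMP cryptate) in GIPR-expressing HEK293 cells seeded from a 4×10^5 cells/mL suspension and treated with compound. The signal ratio is plotted against concentration and fitted to a four-parameter curve to give EC50.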

[4] = Long-term repeated administration in diet-induced obese C57BL/6 mice (DIO); assay type: in vivo, C57/BL6 mice
[5] = biological target: T3, GLP-1R (Homo sapiens, UniProt P43220); assay: In vitro cell activity, cAMP production in HEK293 cells expressing GLP-1R; assay type: cell-based
T3 construct: expressed in transfected cells; host or cells: HEK293 (HEK293-GLP-1R)
T3 sequence (P43220 24-463, species assumed): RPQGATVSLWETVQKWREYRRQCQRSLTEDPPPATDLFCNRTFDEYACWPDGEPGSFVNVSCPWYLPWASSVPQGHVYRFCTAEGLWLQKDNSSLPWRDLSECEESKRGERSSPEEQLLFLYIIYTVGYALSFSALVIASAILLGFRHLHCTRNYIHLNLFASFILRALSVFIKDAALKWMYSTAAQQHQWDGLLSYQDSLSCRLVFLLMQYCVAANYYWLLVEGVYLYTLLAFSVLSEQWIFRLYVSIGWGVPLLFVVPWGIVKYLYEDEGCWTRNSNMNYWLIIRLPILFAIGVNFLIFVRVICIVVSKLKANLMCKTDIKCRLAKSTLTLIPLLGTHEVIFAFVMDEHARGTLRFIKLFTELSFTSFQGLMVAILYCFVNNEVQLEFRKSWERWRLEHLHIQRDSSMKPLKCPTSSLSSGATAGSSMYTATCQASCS
Method in brief: as §1

[6] = 10 nmol/kg s.c. once every 3 days, D7
[7] = 10 nmol/kg s.c. once every 3 days, D10
[8] = 10 nmol/kg s.c. once every 3 days, D13
[9] = 10 nmol/kg s.c. once every 3 days, D16
[10] = 10 nmol/kg s.c. once every 3 days, D19
[11] = 10 nmol/kg s.c. once every 3 days, D22
[12] = 10 nmol/kg s.c. once every 3 days, D25
[13] = 10 nmol/kg s.c. once every 3 days, D28
[14] = after 4 weeks of administration
[15] = after 4 weeks of administration, same dose
[16] = long-term administration 10 nmol/kg, 72 h after the last administration
[17] = long-term administration 10 nmol/kg, blood biochemical index

T1 sequence (P47871 26-477, species assumed): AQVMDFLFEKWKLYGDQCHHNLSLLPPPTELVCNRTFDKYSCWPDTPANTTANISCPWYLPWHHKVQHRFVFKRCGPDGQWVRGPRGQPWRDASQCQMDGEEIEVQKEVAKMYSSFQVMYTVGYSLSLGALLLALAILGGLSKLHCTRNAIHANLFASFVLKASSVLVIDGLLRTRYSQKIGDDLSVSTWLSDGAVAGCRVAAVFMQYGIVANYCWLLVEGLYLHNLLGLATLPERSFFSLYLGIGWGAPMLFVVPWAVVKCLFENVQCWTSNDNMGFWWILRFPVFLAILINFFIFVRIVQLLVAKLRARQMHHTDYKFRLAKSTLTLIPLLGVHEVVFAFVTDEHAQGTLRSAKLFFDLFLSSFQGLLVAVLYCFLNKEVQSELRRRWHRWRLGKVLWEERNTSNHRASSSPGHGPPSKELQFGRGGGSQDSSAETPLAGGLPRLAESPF

CC[C@H](C)[C@H](NC(=O)[C@H](Cc1ccccc1)NC(=O)[C@H](CCC(=O)O)NC(=O)[C@H](CCCNC(=N)N)NC(=O)[C@H](CCC(N)=O)NC(=O)[C@H](CCCNC(=N)N)NC(=O)[C@H](CCCCNC(=O)COCCOCCNC(=O)CC[C@H](NC(=O)CCCCCCCCCCCCCCCCC(=O)O)C(=O)O)NC(=O)[C@H](CCC(=O)O)NC(=O)[C@H](CC(=O)O)NC(=O)[C@H](CC(C)C)NC(=O)[C@H](CC(C)C)NC(=O)[C@@H](NC(=O)[C@H](CO)NC(=O)[C@H](Cc1ccc(O)cc1)NC(=O)[C@H](CC(=O)O)NC(=O)[C@H](CO)NC(=O)[C@@H](NC(=O)[C@](C)(Cc1ccccc1F)NC(=O)[C@@H](NC(=O)CNC(=O)[C@H](Cc1c[nH]cn1)NC(=O)C(C)(C)NC(=O)[C@@H](N)Cc1ccc(O)cc1)[C@@H](C)O)[C@@H](C)O)[C@@H](C)CC)C(=O)N[C@@H](CCC(=O)O)C(=O)N[C@@H](Cc1c[nH]c2ccccc12)C(=O)N[C@@H](CC(C)C)C(=O)N[C@@H](CC(C)C)C(=O)N[C@@H](C)C(=O)NCC(=O)NCC(=O)N1CCC[C@H]1C(=O)N[C@@H](CO)C(=O)N[C@@H](CO)C(=O)NCC(=O)N[C@@H](C)C(=O)N1CCC[C@H]1C(=O)N1CCC[C@H]1C(=O)N1CCC[C@H]1C(=O)N[C@@H](CO)C(=O)O [HEC-PT77]
EC50 [1]: 0.144 nM | blood glucose after administration ([2]; db/db mice, 10 nmol/kg): significantly reduce blood glucose | Random blood glucose (mM) D0 ([2]; db/db mice, 10 nmol/kg s.c. once every three days, D0 (before first dose)): 26.6 ± 4.2 mM | Random blood glucose (mM) D3 ([2]; db/db mice, 10 nmol/kg s.c. once every three days, D3): 15.8 ± 4.0 mM | Random blood glucose (mM) D4 ([2]; db/db mice, 10 nmol/kg s.c. once every three days, D4): 17.8 ± 5.9 mM | Random blood glucose (mM) D5 ([2]; db/db mice, 10 nmol/kg s.c. once every three days, D5): 21.5 ± 5.6 mM | Random blood glucose (mM) D6 ([2]; db/db mice, 10 nmol/kg s.c. once every three days, D6): 24.1 ± 4.6 mM | Random blood glucose (mM) D7 ([2]; db/db mice, 10 nmol/kg s.c. once every three days, D7): 21.9 ± 3.9 mM | Random blood glucose (mM) D10 ([2]; db/db mice, 10 nmol/kg s.c. once every three days, D10): 13.4 ± 5.4 mM | Random blood glucose (mM) D13 ([2]; db/db mice, 10 nmol/kg s.c. once every three days, D13): 15.7 ± 5.4 mM | Random blood glucose (mM) D16 ([2]; db/db mice, 10 nmol/kg s.c. once every three days, D16): 12.7 ± 6.1 mM | Random blood glucose (mM) D19 ([2]; db/db mice, 10 nmol/kg s.c. once every three days, D19): 15.5 ± 4.6 mM | Random blood glucose (mM) D22 ([2]; db/db mice, 10 nmol/kg s.c. once every three days, D22): 15.6 ± 6.1 mM | Random blood glucose (mM) D25 ([2]; db/db mice, 10 nmol/kg s.c. once every three days, D25): 14.2±5.1^a mM | Random blood glucose (mM) 6 h ([2]; db/db mice, 10 nmol/kg s.c., 6 h): 15.9 ± 5.9 mM | Random blood glucose (mM) 24 h ([2]; db/db mice, 10 nmol/kg s.c., 24 h): 8.1 ± 4.5 mM | Random blood glucose (mM) 48 h ([2]; db/db mice, 10 nmol/kg s.c., 48 h): 11.1 ± 6.2 mM | time at which blood glucose levels reached the lowest level ([2]; db/db mice, 10 nmol/kg, after administration): about 24 hours | blood glucose lowering after long-term administration compared with LY3298176 ([2]; db/db mice, long-term repeated administration): not inferior to the positive control LY3298176 | blood glucose reducing effect after administration compared with LY3298176 ([2]; db/db mice, same dose 10 nmol/kg): slightly better than the positive control LY3298176 | blood glucose level after long-term administration ([2]; type II diabetes model db/db mice): significantly improve the blood glucose level | EC50 [3]: 0.0227 nM | Cumulative food intake (g/pcs) D7 [4, 6]: 8.7 g/pcs | Weight gain rate (%) D7 [4, 6]: -14.9±3.8% | Cumulative food intake (g/pcs) D10 [4, 7]: 11.4 g/pcs | Weight gain rate (%) D10 [4, 7]: -20.9±4.0% | Cumulative food intake (g/each) D13 [4, 8]: 14.4 g/each | Weight gain rate (%) D13 [4, 8]: -24.7±5.5% | Cumulative food intake (g/each) D16 [4, 9]: 19.1 g/each | Weight gain rate (%) D16 [4, 9]: -26.6±5.6% | Cumulative food intake (g/each) D19 [4, 10]: 24.7 g/each | Weight gain rate (%) D19 [4, 10]: -27.7±5.5% | Cumulative food intake (g/each) D22 [4, 11]: 30.6 g/each | Weight gain rate (%) D22 [4, 11]: -28.9±6.4% | Cumulative food intake (g/each) D25 [4, 12]: 36.7 g/each | Weight gain rate (%) D25 [4, 12]: -31.2±6.9% | Cumulative food intake (g/each) D28 [4, 13]: 43.7 g/each | Weight gain rate (%) D28 [4, 13]: -30.4±5.2% | Cumulative food intake (g/each) D30 ([4]; 10 nmol/kg s.c. once every 3 days, D30): 47.5^a g/each | Weight gain rate (%) D31 ([4]; 10 nmol/kg s.c. once every 3 days, D31): -30.2±4.9^a % | Cumulative food intake (g/pcs) D0 ([4]; 10 nmol/kg s.c., D0): 2.4 g/pcs | Weight gain rate (%) D0 ([4]; 10 nmol/kg s.c., D0): 0.0±0.0% | Cumulative food intake (g/pcs) D1 ([4]; 10 nmol/kg s.c., D1): 2.8 g/pcs | Weight gain rate (%) D1 ([4]; 10 nmol/kg s.c., D1): -5.5±0.7% | Cumulative food intake (g/pcs) D2 ([4]; 10 nmol/kg s.c., D2): 3.6 g/pcs | Weight gain rate (%) D2 ([4]; 10 nmol/kg s.c., D2): -7.7±1.9% | Cumulative food intake (g/pcs) D3 ([4]; 10 nmol/kg s.c., D3): 4.7 g/pcs | Weight gain rate (%) D3 ([4]; 10 nmol/kg s.c., D3): -8.4±0.9% | Cumulative food intake (g/pcs) D4 ([4]; 10 nmol/kg s.c., D4): 6.3 g/pcs | Weight gain rate (%) D4 ([4]; 10 nmol/kg s.c., D4): -7.1±3.5% | liver function and blood lipids of DIO mice [4, 14]: significantly improved the liver function and blood lipids | weight loss and food intake inhibition effects compared with Semaglutide [4, 14]: superior to the positive drug Semaglutide | food intake inhibition effect compared with LY3298176 [4, 15]: comparable to those of the same dose of the positive drug LY3298176 | weight loss effect compared with LY3298176 [4, 15]: comparable to those of the same dose of the positive drug LY3298176 | Liver index/% [4, 16]: 2.7±0.0^a % | Liver/g [4, 16]: 0.9±0.1^a g | Weight/g [4, 16]: 31.5±3.2^a g | ALT (U/L) [4, 17]: 29.1±5.8^a U/L | AST (U/L) [4, 17]: 112.0±20.9^a U/L | CHOL (mmol/L) [4, 17]: 3.2±0.5^a mmol/L | TRIGL (mmol/L) [4, 17]: 0.6±0.1^a mmol/L | EC50 [5]: 0.0656 nM
